Source: PubChem BioAssay AID2060891 (Molecular Pharmacology Branch, DTP, NCI, 2025)

System: K98450-129-R-PDC complex spheroid growth, percent test/control
Experiment: Anticancer human tumor K98450-129-R-PDC patient-derived colon adenocarcinoma cell line growth inhibition [RAS]
Details: for IC50: curve of first compound; for viability, T/C: stronger effect = lower value; active = viability on the fitted dose curve at most 10% of control; inactive = the rest
Summary of the method: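 Tumour cells grown as complex spheroids with HUVEC endothelial cells and mesenchymal stem cells, treated with RAS pathway inhibitor combinations. Each agent spans half-log steps from near clinical Cmax, or 10 microM where Cmax is unknown.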

[1] = second compound 0.00316 µM, first compound 0.0316 µM
[2] = second compound 0.00316 µM, first compound 0.1 µM
[3] = second compound 0.00316 µM, first compound 0.316 µM
[4] = second compound 0.00316 µM, first compound 1 µM
[5] = second compound 0.00316 µM, first compound 3.16 µM
[6] = second compound 0.00316 µM, first compound 10 µM
[7] = second compound 0.01 µM, first compound 0.0316 µM
[8] = second compound 0.01 µM, first compound 0.1 µM
[9] = second compound 0.01 µM, first compound 0.316 µM
[10] = second compound 0.01 µM, first compound 1 µM
[11] = second compound 0.01 µM, first compound 3.16 µM
[12] = second compound 0.01 µM, first compound 10 µM
[13] = second compound 0.0316 µM, first compound 0.0316 µM
[14] = second compound 0.0316 µM, first compound 0.1 µM
[15] = second compound 0.0316 µM, first compound 0.316 µM
[16] = second compound 0.0316 µM, first compound 1 µM
[17] = second compound 0.0316 µM, first compound 3.16 µM
[18] = second compound 0.0316 µM, first compound 10 µM
[19] = second compound 0.1 µM, first compound 0.0316 µM
[20] = second compound 0.1 µM, first compound 0.1 µM
[21] = second compound 0.1 µM, first compound 0.316 µM
[22] = second compound 0.1 µM, first compound 1 µM
[23] = second compound 0.1 µM, first compound 3.16 µM
[24] = second compound 0.1 µM, first compound 10 µM
[25] = second compound 0.316 µM, first compound 0.0316 µM
[26] = second compound 0.316 µM, first compound 0.1 µM
[27] = second compound 0.316 µM, first compound 0.316 µM
[28] = second compound 0.316 µM, first compound 1 µM
[29] = second compound 0.316 µM, first compound 3.16 µM
[30] = second compound 0.316 µM, first compound 10 µM
[31] = second compound 1 µM, first compound 0.0316 µM
[32] = second compound 1 µM, first compound 0.1 µM
[33] = second compound 1 µM, first compound 0.316 µM
[34] = second compound 1 µM, first compound 1 µM
[35] = second compound 1 µM, first compound 3.16 µM
[36] = second compound 1 µM, first compound 10 µM
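Note: spheroids exposed to agents for seven days before the viability readout.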
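Throughout, for viability, T/C: luminescence used as a proxy for viable cell amount.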

CC1(O)CCCC1n1c(=O)c(C(F)F)cc2cnc(NC3CCN(S(C)(=O)=O)CC3)nc21 (stereo not given) + C=CC(=O)N1CCN(c2nc(OCC3CCCN3C)nc3c(F)c(-c4nc(N)cc(C)c4C(F)(F)F)c(Cl)cc23)C(C)C1
2760 nM: IC50 (second compound 0.01 µM)
< 31.6 nM: IC50 (second compound 0.316 µM) | IC50 (second compound 1 µM)
229 nM: IC50 (second compound 0.1 µM)
inactive: viability, T/C [1] 97.1% | viability, T/C [2] 90.5% | viability, T/C [3] 80.8% | viability, T/C [4] 71.1% | viability, T/C [5] 56.2% | viability, T/C [6] 49.1% | viability, T/C [7] 86.1% | viability, T/C [8] 81.3% | viability, T/C [9] 71.2% | viability, T/C [10] 65.5% | viability, T/C [11] 45% | viability, T/C [12] 41.2% | viability, T/C [13] 74.9% | viability, T/C [14] 70.2% | viability, T/C [15] 57.9% | viability, T/C [16] 47.5% | viability, T/C [17] 34.4% | viability, T/C [18] 32% | viability, T/C [19] 55.9% | viability, T/C [20] 55.6% | viability, T/C [21] 48.2% | viability, T/C [22] 34% | viability, T/C [23] 26.9% | viability, T/C [24] 22% | viability, T/C [25] 45.2% | viability, T/C [26] 42.1% | viability, T/C [27] 33% | viability, T/C [28] 27.6% | viability, T/C [29] 21.7% | viability, T/C [30] 18.9% | viability, T/C [31] 31.7% | viability, T/C [32] 33.7% | viability, T/C [33] 26.6% | viability, T/C [34] 21% | viability, T/C [35] 19.4% | viability, T/C [36] 16.1%
8350 nM: IC50 (second compound 0.00316 µM)
696 nM: IC50 (second compound 0.0316 µM)

CCC(CC)c1cc(NC2CCC(N)C2)n2nccc2n1 (stereo not given) + C=CC(=O)N1CCN(c2nc(OCC3CCCN3C)nc3c(F)c(-c4nc(N)cc(C)c4C(F)(F)F)c(Cl)cc23)C(C)C1
2770 nM: IC50 (second compound 0.0316 µM)
inactive: viability, T/C [1] 97.6% | viability, T/C [2] 93.8% | viability, T/C [3] 91.5% | viability, T/C [4] 87.3% | viability, T/C [5] 78.2% | viability, T/C [6] 13.5% | viability, T/C [7] 88.2% | viability, T/C [8] 86.8% | viability, T/C [9] 84.6% | viability, T/C [10] 85.8% | viability, T/C [11] 66.2% | viability, T/C [12] 15.1% | viability, T/C [13] 78.6% | viability, T/C [14] 73.3% | viability, T/C [15] 73.1% | viability, T/C [16] 60.4% | viability, T/C [17] 51.3% | viability, T/C [19] 48.2% | viability, T/C [20] 55.4% | viability, T/C [21] 51.9% | viability, T/C [22] 54.3% | viability, T/C [23] 34.1% | viability, T/C [25] 38.4% | viability, T/C [26] 38.9% | viability, T/C [27] 41% | viability, T/C [28] 37.3% | viability, T/C [29] 16.4% | viability, T/C [31] 32% | viability, T/C [32] 31.9% | viability, T/C [33] 33.3% | viability, T/C [34] 25.3% | viability, T/C [35] 11.1%
active: viability, T/C [18] 8.93% | viability, T/C [24] 8.77% | viability, T/C [30] 7.47% | viability, T/C [36] 8.2%
< 31.6 nM: IC50 (second compound 0.316 µM) | IC50 (second compound 1 µM)
4560 nM: IC50 (second compound 0.01 µM)
5160 nM: IC50 (second compound 0.00316 µM)
1170 nM: IC50 (second compound 0.1 µM)

CCN1CCN(Cc2ccc(Nc3ncc(F)c(-c4cc(F)c5nc(C)n(C(C)C)c5c4)n3)nc2)CC1 + C=CC(=O)N1CCN(c2nc(OCC3CCCN3C)nc3c(F)c(-c4nc(N)cc(C)c4C(F)(F)F)c(Cl)cc23)C(C)C1
65.7 nM: IC50 (second compound 0.0316 µM)
20.6 nM: IC50 (second compound 0.1 µM)
177 nM: IC50 (second compound 0.01 µM)
512 nM: IC50 (second compound 0.00316 µM)
< 3.16 nM: IC50 (second compound 0.316 µM) | IC50 (second compound 1 µM)
inactive: viability, T/C (second compound 0.00316 µM, first compound 0.00316 µM) 95% | viability, T/C (second compound 0.00316 µM, first compound 0.01 µM) 97.3% | viability, T/C [1] 81.8% | viability, T/C [2] 75.2% | viability, T/C [3] 48.7% | viability, T/C [4] 47.8% | viability, T/C (second compound 0.01 µM, first compound 0.00316 µM) 90.8% | viability, T/C (second compound 0.01 µM, first compound 0.01 µM) 86.8% | viability, T/C [7] 73.7% | viability, T/C [8] 57.8% | viability, T/C [9] 42.3% | viability, T/C [10] 36.2% | viability, T/C (second compound 0.0316 µM, first compound 0.00316 µM) 73.3% | viability, T/C (second compound 0.0316 µM, first compound 0.01 µM) 68.3% | viability, T/C [13] 62.5% | viability, T/C [14] 43.2% | viability, T/C [15] 32.4% | viability, T/C [16] 31.9% | viability, T/C (second compound 0.1 µM, first compound 0.00316 µM) 60.2% | viability, T/C (second compound 0.1 µM, first compound 0.01 µM) 55.1% | viability, T/C [19] 46.6% | viability, T/C [20] 36.6% | viability, T/C [21] 27% | viability, T/C [22] 29.2% | viability, T/C (second compound 0.316 µM, first compound 0.00316 µM) 44.4% | viability, T/C (second compound 0.316 µM, first compound 0.01 µM) 41.2% | viability, T/C [25] 33.1% | viability, T/C [26] 27.9% | viability, T/C [27] 24.2% | viability, T/C [28] 28.4% | viability, T/C (second compound 1 µM, first compound 0.00316 µM) 31.8% | viability, T/C (second compound 1 µM, first compound 0.01 µM) 32.1% | viability, T/C [31] 28.7% | viability, T/C [32] 24.3% | viability, T/C [33] 24.6% | viability, T/C [34] 29.2%

C[C@@H](NC(=O)c1ncnc(N)c1Cl)c1ncc(C(=O)Nc2cc(C(F)(F)F)c(Cl)cn2)s1 + C=CC(=O)N1CCN(c2nc(OCC3CCCN3C)nc3c(F)c(-c4nc(N)cc(C)c4C(F)(F)F)c(Cl)cc23)C(C)C1
< 31.6 nM: IC50 (second compound 0.316 µM) | IC50 (second compound 1 µM)
inactive: viability, T/C [1] 101% | viability, T/C [2] 98.6% | viability, T/C [3] 102% | viability, T/C [4] 108% | viability, T/C [5] 115% | viability, T/C [6] 94% | viability, T/C [7] 91.2% | viability, T/C [8] 92.5% | viability, T/C [9] 89.5% | viability, T/C [10] 97.4% | viability, T/C [11] 94.3% | viability, T/C [12] 80.1% | viability, T/C [13] 76.3% | viability, T/C [14] 80.2% | viability, T/C [15] 76.3% | viability, T/C [16] 77.2% | viability, T/C [17] 80% | viability, T/C [18] 65.1% | viability, T/C [19] 63.8% | viability, T/C [20] 66.6% | viability, T/C [21] 59.2% | viability, T/C [22] 64.8% | viability, T/C [23] 69.9% | viability, T/C [24] 56.3% | viability, T/C [25] 44.2% | viability, T/C [26] 50.4% | viability, T/C [27] 52.1% | viability, T/C [28] 49.9% | viability, T/C [29] 57% | viability, T/C [30] 46.1% | viability, T/C [31] 37.1% | viability, T/C [32] 41.3% | viability, T/C [33] 44.6% | viability, T/C [34] 44.6% | viability, T/C [35] 49.7% | viability, T/C [36] 43.5%
> 10000 nM: IC50 (second compound 0.00316 µM) | IC50 (second compound 0.01 µM) | IC50 (second compound 0.0316 µM) | IC50 (second compound 0.1 µM)

Cc1nc(N2CCC3(CC2)COC(C)C3N)c(CO)nc1Sc1ccnc(N)c1Cl (stereo not given) + C=CC(=O)N1CCN(c2nc(OCC3CCCN3C)nc3c(F)c(-c4nc(N)cc(C)c4C(F)(F)F)c(Cl)cc23)C(C)C1
inactive: viability, T/C [1] 88.3% | viability, T/C [2] 87.9% | viability, T/C [3] 66.2% | viability, T/C [4] 34.3% | viability, T/C [5] 10.5% | viability, T/C [7] 82.9% | viability, T/C [8] 69.6% | viability, T/C [9] 44.6% | viability, T/C [10] 11.6% | viability, T/C [13] 61.2% | viability, T/C [14] 47.6% | viability, T/C [15] 20.9% | viability, T/C [19] 40.2% | viability, T/C [20] 20.5% | viability, T/C [21] 11% | viability, T/C [25] 23.4% | viability, T/C [26] 14.7% | viability, T/C [27] 10.1% | viability, T/C [31] 21.6% | viability, T/C [32] 15.2% | viability, T/C [33] 10.9%
569 nM: IC50 (second compound 0.00316 µM)
active: viability, T/C [6] 7.72% | viability, T/C [11] 9.41% | viability, T/C [12] 7.24% | viability, T/C [16] 9.03% | viability, T/C [17] 9.29% | viability, T/C [18] 7.4% | viability, T/C [22] 8.4% | viability, T/C [23] 8.28% | viability, T/C [24] 7.55% | viability, T/C [28] 9.11% | viability, T/C [29] 8.21% | viability, T/C [30] 7.31% | viability, T/C [34] 8.92% | viability, T/C [35] 8.81% | viability, T/C [36] 7.65%
< 31.6 nM: IC50 (second compound 0.1 µM) | IC50 (second compound 0.316 µM) | IC50 (second compound 1 µM)
82.4 nM: IC50 (second compound 0.0316 µM)
235 nM: IC50 (second compound 0.01 µM)
